PubChem BioAssay (NCI)
Where “and” joins values, the source holds several entries; their conditions need not be identical. Equal entries are not always repeated.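 These data come from cells grown in 96-well plates and exposed to compound for 48 hours at five concentrations. Abbreviation: GI50, concentration required for 50% inhibition of growth. At the TGI there is no net growth.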

Tests used:
Assay in all cases: NCI-60 cell line screen, 48 h
MDA-MB-231 breast = system: MDA-MB-231 breast
SK-OV-3 ovarian = system: SK-OV-3 ovarian
IGROV1 ovarian = system: IGROV1 ovarian
NCI-H460 lung = system: NCI-H460 lung
LOX IMVI melanoma = system: LOX IMVI melanoma
CAKI-1 renal = system: CAKI-1 renal
MDA-N = system: MDA-N
A498 renal = system: A498 renal
NCI/ADR-RES ovarian = system: NCI/ADR-RES ovarian
NCI-H23 lung = system: NCI-H23 lung
HL-60(TB) leukemia = system: HL-60(TB) leukemia
RPMI-8226 leukemia = system: RPMI-8226 leukemia
M14 melanoma = system: M14 melanoma
ACHN renal = system: ACHN renal
U251 CNS = system: U251 CNS
SF-295 CNS = system: SF-295 CNS
SNB-75 CNS = system: SNB-75 CNS
UO-31 renal = system: UO-31 renal

Compound | TGI (MDA-MB-231 breast) [µM] | TGI (SK-OV-3 ovarian) | TGI (IGROV1 ovarian) [µM] | TGI (NCI-H460 lung) [µM] | TGI (LOX IMVI melanoma) [µM] | TGI (CAKI-1 renal) [µM] | TGI (MDA-N) [µM] | TGI (A498 renal) [µM] | TGI (NCI/ADR-RES ovarian) [µM] | TGI (NCI-H23 lung) [µM] | TGI (HL-60(TB) leukemia) [µM] | TGI (RPMI-8226 leukemia) [µM] | TGI (M14 melanoma) [µM] | TGI (ACHN renal) | TGI (U251 CNS) [µM] | TGI (SF-295 CNS) | TGI (SNB-75 CNS) [µM] | TGI (UO-31 renal) | GI50 (SNB-75 CNS) [µM]
O=C1c2ccccc2C(=O)N1c1ccc(OCCN2CCCCC2)cc1 | > 100 | > 100 µM | > 100 | > 100 | > 100 | > 100 | > 100 | > 100 | > 100 | > 100 | > 100 | > 100 | > 100 | > 100 µM | > 100 | > 100 µM | – | – | –
N#Cc1c(-c2ccc(Cl)cc2)c(C#N)c(=O)n(NS(=O)(=O)c2ccccc2)c1-c1ccccc1 | > 25 | > 25 µM | – | > 25 | > 25 | > 25 | > 25 | > 25 | – | – | > 25 | > 25 | > 25 | > 25 µM | > 25 | > 25 µM | – | – | –
CCC(=O)NCCc1c[nH]c2ccc(OC)cc12 | > 100 | > 100 µM | > 100 | > 100 | > 100 | > 100 | > 100 | > 100 | > 100 | > 100 | – | > 100 | > 100 | > 100 µM | > 100 | > 100 µM | > 100 | > 100 µM | –
O=C(NC(Nc1ccc(F)c(Cl)c1)(C(F)(F)F)C(F)(F)F)C(C(F)(F)F)C(F)(F)F | 78.9 | > 100 µM | 33.4 | > 100 | 29.9 | > 100 | > 100 | > 100 | 63.4 | 67.1 | 44.6 | 66.8 | > 100 | 36.9 µM | > 100 | > 100 µM | – | 59.1 µM | –
CCCCCCCSCC(O)COC(c1ccccc1)(c1ccccc1)c1ccccc1 (centres undefined) | > 100 | > 100 µM | > 100 | > 100 | > 100 | > 100 | > 100 | > 100 | > 100 | 60.3 | 63.9 | 87.3 | > 100 | 76.3 µM | > 100 | > 100 µM | – | 27.8 µM | –
CC1(C)CCc2c(c(N=Nc3ccccc3)c3ccccc3c2O)O1 | 67 | 50.3 µM | > 100 | 53.3 | 54 | 69.1 | 41.7 | 44.1 | > 100 | > 100 | > 100 | > 100 | 88.8 | 33.5 µM | 61.3 | 57.3 µM | – | 60.3 µM | –
CC(=O)c1cccc(NC2C(N)C(NC(=O)N(C)C)(C(C)O)C(C)(O)C2(O)COC(=O)c2c(C)cccc2O)c1 (centres undefined) | 0.208 | 0.0808 µM and 0.205 µM | – | – | – | 0.0235 | 0.0135 | < 0.001 | 0.591 | – | < 0.001 | – | 0.3 | 0.334 µM and 0.539 µM | 0.109 | 0.164 µM and 0.231 µM | – | 0.194 µM and 0.257 µM | < 0.001
C[C@@H]1OC(=O)C[C@H]2CC(=O)N(CCc3cn(S(=O)(=O)C(F)(F)F)c4ccccc34)C[C@@H]21 | > 100 | > 100 µM | > 100 | > 100 | – | > 100 | > 100 | > 100 | > 100 | > 100 | – | > 100 | > 100 | > 100 µM | > 100 | > 100 µM | > 100 | > 100 µM | –
CSc1c(C#N)c2n(c3ccccc3[n+]2C)c2ncccc12 | 46.9 | > 100 µM | > 100 | > 100 | 34.1 | > 100 | 58.6 | 84.6 | 85.5 | 51.6 | – | > 100 | 52.6 | > 100 µM | 70.8 | > 100 µM | 50.4 | 50.1 µM | –
O=C(/C=C/c1ccc(O)c(O)c1)OCCOC(=O)/C=C/c1ccc(O)c(O)c1 | > 100 | 55.5 µM | > 100 | > 100 | 93.3 | > 100 | 41.6 | > 100 | > 100 | > 100 | – | > 100 | 28.5 | 85.8 µM | 59.2 | 44.1 µM | – | 47.5 µM | –
S=C1C=C(c2ccccc2)Sc2ccccc2N1 | > 100 | > 100 µM | > 100 | > 100 | > 100 | > 100 | > 100 | – | > 100 | > 100 | > 100 | > 100 | > 100 | > 100 µM | > 100 | > 100 µM | > 100 | > 100 µM | –
NNC(=O)c1n[nH]nc1SSc1n[nH]nc1C(=O)NN | > 100 | > 100 µM | > 100 | > 100 | > 100 | > 100 | > 100 | – | > 100 | > 100 | > 100 | – | > 100 | > 100 µM | > 100 | > 100 µM | > 100 | > 100 µM | –
COC(=O)C1=C(O)C(C(=O)OC)[C@]2(O)[C@H](C(=O)OC)[C@H]1C[C@@H](c1ccc(OC)cc1)[C@H]2C(=O)OC (some centres undefined) | 75.3 | 65.5 µM | > 100 | 50 | 78.5 | 62.1 | 40.7 | 34.9 | > 100 | > 100 | – | 57.4 | 66.6 | 37.6 µM | 65.6 | > 100 µM | 91.8 | 34.9 µM | –
COC/C=C\[C@@]1(O)CCCC[C@@H]1CC(OC)OC | > 100 | > 100 µM | > 55.6 | > 90 | 20.9 | > 100 | > 100 | – | > 100 | 98.7 | > 28.4 | 70.9 | > 100 | – | > 100 | 97.3 µM | > 100 | > 96.6 µM | –
S=C(Nc1ccc(Br)cn1)NC12CC3CC(CC(C3)C1)C2 | 58 | 67.6 µM | 30.2 | > 100 | – | > 100 | 47.7 | > 100 | 55.7 | 38.9 | – | > 100 | > 100 | 56.1 µM | 30 | 49.5 µM | 40.8 | > 100 µM | –
Nc1c(C(=O)c2ccccc2)[nH]c(NCc2ccccc2)c1C(=S)Nc1ccccc1 | > 100 | > 100 µM | > 100 | > 100 | > 100 | > 100 | > 100 | > 100 | > 100 | > 100 | > 100 | – | > 100 | > 100 µM | > 100 | > 100 µM | > 100 | > 100 µM | –
CSCCCCCCCCCCOc1ccc(C=C2C(=C(C#N)C#N)c3ccccc3C2=C(C#N)C#N)cc1 | 35.7 | 32.1 µM | 34.7 | 32.2 | 61.7 | 32.3 | 38.3 | 33.1 | 75.7 | 48.9 | 4.34 | > 100 | 32.1 | 29.5 µM | 31.2 | 34 µM | – | 29.9 µM | –
Cc1cc2c(-c3ccccc3)cc(=O)[nH]c2cc1N | > 100 | – | > 100 | > 100 | > 100 | > 100 | > 100 | > 100 | > 100 | > 100 | – | > 100 | > 100 | > 100 µM | > 100 | > 100 µM | > 100 | > 100 µM | –
C=C(Cl)C(Cl)(CBr)CCC(Cl)C(C)(C)Cl (centres undefined) | 5.83 | 70.8 µM | 26.3 | 2.83 | 28 | 2.48 | 7.55 | 4.04 | 11.8 | 34.3 | – | 0.872 | 35.6 | 3.9 µM | 1.69 | 7.73 µM | 1.77 | 5.15 µM | –
c1ccc(-c2cc(-c3cc(-c4ccccc4)n(-c4ccccc4)n3)nn2-c2ccccc2)cc1 | > 100 | > 100 µM | > 100 | > 100 | – | > 100 | > 100 | > 100 | > 100 | > 100 | – | – | > 100 | > 100 µM | > 100 | > 100 µM | > 100 | > 100 µM | –
CCCCCCCCCN1CCC(=O)C(C(=O)OC)C1 (centres undefined) | – | 31.1 µM | – | 32.9 | 26.1 | 29.2 | 29.5 | 52.7 | 26.8 | 8.59 | 10.9 | 49.1 | 29.2 | 21 µM | – | 31.9 µM | 34 | 22 µM | –
CO[C@H]1O[C@@H]2CO[C@@H](c3ccccc3)O[C@H]2C[C@]12CCC/C=C\CO2 | 39.3 | > 75 µM | – | > 75 | 22.9 | > 75 | 26.9 | 37.2 | 73.6 | 68.1 | 54.7 | – | 41.2 | 35 µM | 23.5 | > 75 µM | 61.8 | 25.2 µM | –
CC(=O)OC[C@@]12C[C@H]3C(=O)C(C)(C)C[C@H]3[C@]1(C)[C@@H](OC(C)=O)[C@]1(O)[C@H]([C@@H](OC(=O)c3ccccc3)[C@@H](C)[C@H]1OC(C)=O)[C@H]2OC(C)=O | > 20 | > 20 µM | > 20 | > 20 | > 20 | > 20 | > 20 | > 20 | > 20 | > 20 | > 20 | – | > 20 | > 20 µM | > 20 | > 20 µM | > 20 | > 20 µM | –
N#Cc1c(NC(=S)NCc2ccccc2)sc2c1CCN(N1CCc3c(sc(NC(=S)NCc4ccccc4)c3C#N)C1)C2 | > 100 | > 100 µM | > 100 | > 100 | > 100 | > 100 | > 100 | > 100 | > 100 | > 100 | > 100 | – | > 100 | > 100 µM | > 100 | > 100 µM | > 100 | > 100 µM | –
O=C(C1OC1c1ccc([N+](=O)[O-])cc1)C12CC3CC(CC(C3)C1)C2 (centres undefined) | 34.8 | 49.6 µM | 34.6 | 28.5 | 4.19 | 36 | 24.3 | 35.7 | 39.2 | 27.2 | 16.1 | – | 30.1 | 34 µM | 24.6 | 30.8 µM | 39.4 | 32.4 µM | –
C[C@@H]1C(O)CC[C@H](C)C12CC=CC2=O (some centres undefined) | > 100 | > 100 µM | > 100 | > 100 | > 100 | > 100 | > 100 | > 100 | > 100 | > 100 | > 100 | > 100 | – | > 100 µM | > 100 | > 100 µM | – | > 100 µM | –
COc1nc(=O)n(C2CC(N=[N+]=[N-])C(CO)O2)cc1C (centres undefined) | > 100 | – | > 100 | > 100 | > 100 | – | > 100 | – | > 100 | > 100 | > 100 | – | > 100 | > 100 µM | > 100 | > 100 µM | – | > 100 µM | –
Cc1ccc(/C=N/Nc2ncccn2)s1 | > 100 | > 100 µM | > 100 | – | > 100 | > 100 | > 100 | – | > 100 | > 100 | – | > 100 | > 100 | > 100 µM | > 100 | > 100 µM | > 100 | > 100 µM | –
